Results from ChEMBL document CHEMBL1152277, “Lead optimization of 4-acetylamino-2-(3,5-dimethylpyrazol-1-yl)-6-pyridylpyrimidines as A2A adenosine receptor antagonists for the treatment of Parkinson's disease” (J Med Chem, 2008).
pIC50, pKi: −log10 of the molar value. Converted amounts (≈) assume the structure as drawn.

What was measured:
[1] = Drug concentration in rat brain at 30 mg/kg, po after 2 hrs; assay type: ADME, organism-based; design: dose 30 mg/kg, route oral; settings: read-out: Drug uptake
Adenosine receptor A2a [2] = target: T1, Adenosine receptor A2a (Homo sapiens, UniProt P29274); experiment: Displacement of [3H][…] from human adenosine A2A receptor expressed in HEK293 cells; assay type: cell-based
Cytochrome P450 3A4 = Cytochrome P450 3A4 (Homo sapiens, UniProt P08684)
Description: Inhibition of CYP3A4 in human liver microsomes by LC-MS/MS analysis

Adenosine receptor A1 = target: T2, Adenosine receptor A1 (Homo sapiens, UniProt P30542); experiment: Displacement of [3H]DPCPX from human adenosine A1 receptor expressed in HEK293 cells; assay type: cell-based
T2 sequence (P30542 whole entry): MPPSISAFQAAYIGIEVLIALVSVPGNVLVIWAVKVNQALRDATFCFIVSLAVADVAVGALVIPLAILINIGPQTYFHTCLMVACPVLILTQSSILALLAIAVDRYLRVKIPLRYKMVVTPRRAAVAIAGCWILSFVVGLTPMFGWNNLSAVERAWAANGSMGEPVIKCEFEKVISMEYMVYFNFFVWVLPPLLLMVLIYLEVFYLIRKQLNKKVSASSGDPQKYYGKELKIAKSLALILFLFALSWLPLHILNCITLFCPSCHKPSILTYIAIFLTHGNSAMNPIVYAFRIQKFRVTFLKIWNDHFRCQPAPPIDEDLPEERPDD

Rattus norvegicus [3] = experiment: Inhibition of haloperidol-induced catalepsy in rat at 30 mg/kg, po after 2 hrs; assay type: functional
Adenosine receptor A2a [4] = target: T1, Adenosine receptor A2a; experiment: Antagonist activity at human adenosine A2A receptor expressed in CHO cells assessed as inhibition of CGS-21680-induced cAMP production; assay type: functional, cell-based
[5] = Drug concentration in rat brain at 10 mg/kg, po after 2 hrs; assay type: ADME, organism-based; design: dose 10 mg/kg, route oral; settings: read-out: Drug uptake
[6] = Plasma concentration in rat at 10 mg/kg, po after 2 hrs; assay type: ADME, organism-based; design: dose 10 mg/kg, route oral
[7] = Aqueous solubility in phosphate-buffered saline at pH 7.4; assay type: physicochemical
Adenosine receptor A2a [8] = target: Adenosine receptor A2a (Rattus norvegicus, UniProt P30543); experiment: Displacement of [3H][…] from rat adenosine A2A receptor expressed in CHO cells; assay type: cell-based
Rattus norvegicus [9] = species on record: Rattus norvegicus; experiment: Inhibition of haloperidol-induced catalepsy in rat assessed as minimal effective dose; assay type: functional; settings: read-out: MED
[10] = Metabolic stability in human liver microsomes assessed as intrinsic clearance by LC-MS/MS analysis; assay type: ADME, Microsome
[11] = Metabolic stability in rat liver microsomes assessed as intrinsic clearance by LC-MS/MS analysis; assay type: ADME, Microsome
Homo sapiens = species on record: Homo sapiens; experiment: Selectivity ratio of Ki for human adenosine A1 receptor to Ki for human adenosine A2A receptor
[12] = Plasma concentration in rat at 30 mg/kg, po after 2 hrs; assay type: ADME, organism-based; design: dose 30 mg/kg, route oral

T1 sequence (P29274 whole entry): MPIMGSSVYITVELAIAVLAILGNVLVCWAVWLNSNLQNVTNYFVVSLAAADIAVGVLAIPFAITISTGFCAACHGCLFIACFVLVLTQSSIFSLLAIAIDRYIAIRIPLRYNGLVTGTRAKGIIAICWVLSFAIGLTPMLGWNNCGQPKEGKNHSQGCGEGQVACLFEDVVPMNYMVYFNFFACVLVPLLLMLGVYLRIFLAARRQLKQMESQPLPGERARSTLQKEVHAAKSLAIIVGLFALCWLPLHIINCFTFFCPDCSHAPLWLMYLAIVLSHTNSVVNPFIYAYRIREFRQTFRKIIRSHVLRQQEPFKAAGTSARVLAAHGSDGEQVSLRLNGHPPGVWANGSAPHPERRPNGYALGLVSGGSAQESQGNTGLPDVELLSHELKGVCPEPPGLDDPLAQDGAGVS
Sequence of Cytochrome P450 3A4 (P08684 whole entry): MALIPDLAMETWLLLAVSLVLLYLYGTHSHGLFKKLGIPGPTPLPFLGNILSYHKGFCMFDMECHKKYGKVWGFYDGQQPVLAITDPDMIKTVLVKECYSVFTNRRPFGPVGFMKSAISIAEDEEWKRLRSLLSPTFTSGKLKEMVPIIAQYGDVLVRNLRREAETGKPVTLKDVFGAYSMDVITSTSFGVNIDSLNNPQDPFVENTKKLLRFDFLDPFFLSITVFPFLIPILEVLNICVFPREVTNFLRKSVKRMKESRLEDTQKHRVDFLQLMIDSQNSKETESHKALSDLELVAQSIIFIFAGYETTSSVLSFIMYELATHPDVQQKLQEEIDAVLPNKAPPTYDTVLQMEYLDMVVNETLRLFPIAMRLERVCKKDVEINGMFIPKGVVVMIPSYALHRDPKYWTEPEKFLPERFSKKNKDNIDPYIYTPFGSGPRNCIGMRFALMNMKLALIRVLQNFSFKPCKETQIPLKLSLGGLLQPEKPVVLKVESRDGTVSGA
Sequence of Adenosine receptor A2a (Rattus norvegicus, UniProt P30543) (P30543 whole entry): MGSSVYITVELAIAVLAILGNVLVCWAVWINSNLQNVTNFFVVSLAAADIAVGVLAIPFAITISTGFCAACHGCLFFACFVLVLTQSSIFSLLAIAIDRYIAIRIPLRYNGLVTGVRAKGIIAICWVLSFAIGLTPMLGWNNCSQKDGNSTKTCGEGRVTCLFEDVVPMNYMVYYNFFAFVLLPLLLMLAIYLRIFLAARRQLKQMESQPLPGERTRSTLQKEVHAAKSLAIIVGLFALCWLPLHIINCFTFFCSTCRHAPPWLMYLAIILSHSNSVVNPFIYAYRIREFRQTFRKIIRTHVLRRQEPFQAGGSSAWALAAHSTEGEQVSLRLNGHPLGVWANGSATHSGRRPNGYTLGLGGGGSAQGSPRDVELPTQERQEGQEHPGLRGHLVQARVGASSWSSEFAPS

CC(=O)Nc1cc(-c2cccc(N3CCC(O)CC3)n2)nc(-n2nc(C)cc2C)n1 gave a concentration at 2 h [1] of 91 ng/g, a pKi (Adenosine receptor A2a [2]) of 8.72 and a pIC50 (Cytochrome P450 3A4) of under 4.70. For the same molecule, the pKi (Adenosine receptor A1) was 6.33, the inhibition in vivo at 30 mg/kg (Rattus norvegicus [3]) was 90% and the pIC50 (Adenosine receptor A2a [4]) was 7.66. The concentration at 2 h [5] was 9 ng/g, the concentration at 2 h [6] was 16 ng/mL and the solubility [7] was 200 µg/mL (≈ 491 µM). It also gave a pKi (Adenosine receptor A2a [8]) of 8.00, a minimal effective dose (Rattus norvegicus [9]) of 30 mg/kg and a CLint scaled [10] of 43 mL/min/kg. It also gave a CLint scaled [11] of 230 mL/min/kg, a Ratio Ki (Homo sapiens) of 247 and a concentration at 2 h [12] of 180 ng/mL.
